Results taken from ChEMBL document CHEMBL1126541, “Novel water soluble phosphate prodrugs of taxol possessing in vivo antitumor activity” (1993).

Tests used:
Assay type in all cases: functional, Mus musculus
M109 [1] = experiment: In vivo antitumor activity in M109 (Murine lung carcinoma cells) tumor model after (ip) administration on days 5 and 8 at dose of 140 mg/kg/injection.
M109 [2] = experiment: In vivo antitumor activity of the taxol was determined in M109 (Murine lung carcinoma cells) tumor model after (ip) administration in 10% Tween 80 in saline on days 5 and 8 at dose of 40 mg/kg/injection in presence of Taxol
M109 [3] = experiment: In vivo antitumor activity in M109 (Murine lung carcinoma cells) tumor model after (ip) administration on days 5 and 8 at dose of 70 mg/kg/injection.
M109 [4] = experiment: In vivo antitumor activity in M109 (Murine lung carcinoma cells) tumor model after (ip) administration on days 1, 5,and 9 at dose of 100 mg/kg/injection.
M109 [5] = experiment: In vivo antitumor activity of the taxol was determined in M109 (Murine lung carcinoma cells) tumor model after (ip) administration in 10% Tween 80 in saline on days1, 5, and 9 at a dose of 30 mg/kg/injection in presence of Taxol

Compound `CC(=O)O[C@H]1C(=O)[C@]2(C)[C@@H](OC(=O)CC(C)(C)c3c(C)cc(C)cc3OP(=O)([O-])[O-])C[C@H]3OC[C@@]3(OC(C)=O)[C@H]2[C@H](OC(=O)c2ccccc2)[C@]2(O)C[C@H](OC(=O)[C@H](O)[C@@H](NC(=O)c3ccccc3)c3ccccc3)C(C)=C1C2(C)C.[Na+].[Na+]` has a T/C (M109 [1]) of 156%, a T/C (M109 [2]) of 144% and a T/C (M109 [3]) of 153%.

For `CC(=O)O[C@H]1C(=O)[C@@]2(C)[C@H]([C@H](OC(=O)c3ccccc3)[C@]3(O)C[C@H](OC(=O)[C@H](OC(=O)CC(C)(C)c4c(C)cc(C)cc4OP(=O)([O-])[O-])[C@@H](NC(=O)c4ccccc4)c4ccccc4)C(C)=C1C3(C)C)[C@]1(OC(C)=O)CO[C@@H]1C[C@@H]2O.[Na+].[Na+]`, the T/C (M109 [4]) was 144% and the T/C (M109 [5]) was 275%.
